Results reported in US8440652B2, “MST1 kinase inhibitors and methods of their use” (Lexicon Pharmaceuticals, Inc., priority 2011, dated 2013).
Where two headings read alike, the source gives them in different places.

Biological target: T1, MST1 (Homo sapiens, UniProt Q13043)
T1 sequence (Q13043 1-487): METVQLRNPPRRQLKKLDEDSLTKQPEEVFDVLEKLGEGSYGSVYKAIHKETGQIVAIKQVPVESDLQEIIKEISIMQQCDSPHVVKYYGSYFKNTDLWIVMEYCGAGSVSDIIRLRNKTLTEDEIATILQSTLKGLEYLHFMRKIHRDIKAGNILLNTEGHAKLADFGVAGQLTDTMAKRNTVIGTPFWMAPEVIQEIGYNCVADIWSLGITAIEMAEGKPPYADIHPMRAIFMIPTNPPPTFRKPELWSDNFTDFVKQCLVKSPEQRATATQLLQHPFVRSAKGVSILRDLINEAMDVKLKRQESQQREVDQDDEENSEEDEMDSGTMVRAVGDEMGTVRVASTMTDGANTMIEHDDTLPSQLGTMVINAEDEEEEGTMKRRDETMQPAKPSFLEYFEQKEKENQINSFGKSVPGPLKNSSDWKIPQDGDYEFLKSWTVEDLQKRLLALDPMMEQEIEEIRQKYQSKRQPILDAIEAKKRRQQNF
Experiment: In vitro measurement of MST1 inhibition (Z′-Lyte kinase assay)
Assay type: biochemical
Experimental: Assays were performed in low-volume 384-well black proxiplates (Perkin Elmer, PE-Blk-Proxi-6008269). Eight compounds were first diluted into LDV (Echo) plates using a Multiprobe, at a starting concentration of 1 mM compound in 100% DMSO. Using the ECHO, 75 nl compound was pinged into 384-well proxiplates. The starting concentration of compound in each assay plate is 7.5 uM, followed by 3-fold dilutions, to give quadruplicate ten-point concentration curves. A 3× solution of MST1 enzyme in kinase buffer (Invitrogen, PR4940C) was added to wells containing compound or DMSO controls, followed by a 10 minute preincubation step. Reactions were initiated by adding 5 μL of a mixture of ATP and Z′-Lyte S/T Pep 7 (Invitrogen, PV3180) and proceeded at RT for 1 hour. […] At the end of the kinase reaction, 10 ul of developing solution (Invitrogen, catalog #PR4876B; development buffer A diluted […] in development buffer B) was added to each well and incubated at RT for 1 hr. All wells were read on a Tecan at 400 nm excitation and 460 nm/530 nm emission. Plus and minus enzyme controls were used to calculate percent inhibition and IC50 curves were generated using Excel.

[1] = 1 μM ATP, read-out: IC50 (μM) 1 μM ATP
[2] = 50 μM ATP, read-out: IC50 (μM) 50 μM ATP

| Structure (SMILES) | IC50 [1] | IC50 [2] |
| --- | --- | --- |
| CCCN(C)S(=O)(=O)c1ccc(-c2cnc(N)c(-c3ccc4c(c3)CCNC4=O)n2)cc1Cl [4-(5-amino-6-(1-oxo-1,2,3,4-tetrahydroisoquinolin-6-yl)pyrazin-2-yl)-2-chloro-N-methyl-N-propylbenzenesulfonamide] | < 0.01 µM | < 0.01 µM |
| CN(CC(F)F)S(=O)(=O)c1ccc(-c2cnc(N)c(-c3ccc4c(c3)CCNC4=O)n2)cc1 [4-(5-amino-6-(1-oxo-1,2,3,4-tetrahydroisoquinolin-6-yl)pyrazin-2-yl)-N-(2,2-difluoroethyl)-N-methylbenzenesulfonamide] | < 0.05 µM | < 0.01 µM |
| CN(C1CC1)S(=O)(=O)c1ccc(-c2cnc(N)c(-c3ccc4c(c3)CCNC4=O)n2)cc1F [4-(5-amino-6-(1-oxo-1,2,3,4-tetrahydroisoquinolin-6-yl)pyrazin-2-yl)-N-cyclopropyl-2-fluoro-N-methylbenzenesulfonamide] | < 0.01 µM | < 0.01 µM |
| CCN(C1CC1)S(=O)(=O)c1ccc(-c2cnc(N)c(-c3ccc4c(c3)CCNC4=O)n2)cc1 [4-(5-amino-6-(1-oxo-1,2,3,4-tetrahydroisoquinolin-6-yl)pyrazin-2-yl)-N-cyclopropyl-N-ethylbenzenesulfonamide] | < 0.05 µM | < 0.01 µM |
| [2H]C([2H])([2H])N(C1CC1)S(=O)(=O)c1ccc(-c2cnc(N)c(-c3ccc4c(c3)CCNC4=O)n2)cc1 [4-(5-amino-6-(1-oxo-1,2,3,4-tetrahydroisoquinolin-6-yl)pyrazin-2-yl)-N-cyclopropyl-N-trideuteromethylbenzenesulfonamide] | < 0.01 µM | < 0.01 µM |
| Nc1ncc(-c2ccc(S(=O)(=O)NC3CC3)cc2)nc1-c1ccc2c(c1)CCNC2=O [4-(5-amino-6-(1-oxo-1,2,3,4-tetrahydroisoquinolin-6-yl)pyrazin-2-yl)-N-cyclopropylbenzenesulfonamide] | < 0.01 µM | < 0.01 µM |
| CCN(C)S(=O)(=O)c1ccc(-c2cnc(N)c(-c3ccc4c(c3)CCNC4=O)n2)cc1C [4-(5-amino-6-(1-oxo-1,2,3,4-tetrahydroisoquinolin-6-yl)pyrazin-2-yl)-N-ethyl-N,2-dimethylbenzenesulfonamide] | < 0.01 µM | < 0.01 µM |
| CCN(C)S(=O)(=O)c1ccc(-c2cnc(N)c(-c3ccc4c(c3)CCNC4=O)n2)cc1 [4-(5-amino-6-(1-oxo-1,2,3,4-tetrahydroisoquinolin-6-yl)pyrazin-2-yl)-N-ethyl-N-methylbenzenesulfonamide] | < 0.01 µM | < 0.01 µM |
| CCNS(=O)(=O)c1ccc(-c2cnc(N)c(-c3ccc4c(c3)CCNC4=O)n2)cc1 [4-(5-amino-6-(1-oxo-1,2,3,4-tetrahydroisoquinolin-6-yl)pyrazin-2-yl)-N-ethylbenzenesulfonamide] | < 0.01 µM | < 0.01 µM |
| C[C@@H]1C[C@H]1N(C)S(=O)(=O)c1ccc(-c2cnc(N)c(-c3ccc4c(c3)CCNC4=O)n2)cc1 [4-(5-amino-6-(1-oxo-1,2,3,4-tetrahydroisoquinolin-6-yl)pyrazin-2-yl)-N-methyl-N-((1R,2R)-2-methylcyclopropyl)benzenesulfonamide] | < 0.01 µM | < 0.01 µM |
| CCCN(C)S(=O)(=O)c1ccc(-c2cnc(N)c(-c3ccc4c(c3)CCNC4=O)n2)cc1 [4-(5-amino-6-(1-oxo-1,2,3,4-tetrahydroisoquinolin-6-yl)pyrazin-2-yl)-N-methyl-N-propylbenzenesulfonamide] | < 0.01 µM | < 0.01 µM |
| N#Cc1ccc(-c2cnc(N)c(-c3ccc4c(c3)CCNC4=O)n2)cc1 [4-(5-amino-6-(1-oxo-1,2,3,4-tetrahydroisoquinolin-6-yl)pyrazin-2-yl)benzonitrile] | < 0.05 µM | < 0.01 µM |
| CCN(C)S(=O)(=O)c1ccc(-c2cnc(N)c(-c3ccc4c(c3)CCCNC4=O)n2)cc1 [4-(5-amino-6-(1-oxo-2,3,4,5-tetrahydro-1H-benzo[c]azepin-7-yl)pyrazin-2-yl)-N-ethyl-N-methylbenzenesulfonamide] | < 0.05 µM | < 0.01 µM |
| N#Cc1ccc(-c2cnc(N)c(-c3ccc4c(c3)C3(CC3)CNC4=O)n2)cc1 [4-(5-amino-6-(1′-oxo-2′,3′-dihydro-1′H-spiro[cyclopropane-1,4′-isoquinolin]-6′-yl)pyrazin-2-yl)benzonitrile] | < 0.05 µM | < 0.01 µM |
| CN1Cc2cc(-c3nc(-c4ccc(S(=O)(=O)N(C)C5CC5)cc4)cnc3N)ccc2C(=O)N1 [4-(5-amino-6-(3-methyl-1-oxo-1,2,3,4-tetrahydrophthalazin-6-yl)pyrazin-2-yl)-N-cyclopropyl-N-methylbenzenesulfonamide] | < 0.05 µM | < 0.01 µM |

Now from value to compound:

| IC50 [1] | IC50 [2] | Structure (SMILES) |
| --- | --- | --- |
| < 0.01 µM | < 0.01 µM | CCN(C)S(=O)(=O)c1ccc(-c2cnc(N)c(-c3ccc4c(O)nccc4c3)n2)cc1 [4-(5-amino-6-(1-hydroxyisoquinolin-6-yl)pyrazin-2-yl)-N-ethyl-N-methylbenzenesulfonamide] |
| < 0.01 µM | < 0.01 µM | CCN(C)S(=O)(=O)c1ccc(-c2cnc(N)c(-c3ccc4c(c3)CCNC4=O)n2)cc1Cl [4-(5-amino-6-(1-oxo-1,2,3,4-tetrahydroisoquinolin-6-yl)pyrazin-2-yl)-2-chloro-N-ethyl-N-methylbenzenesulfonamide] |
| < 0.01 µM | < 0.01 µM | [2H]C([2H])([2H])N(C([2H])([2H])[2H])S(=O)(=O)c1ccc(-c2cnc(N)c(-c3ccc4c(c3)CCNC4=O)n2)cc1 [4-(5-amino-6-(1-oxo-1,2,3,4-tetrahydroisoquinolin-6-yl)pyrazin-2-yl)-N,N-di(trideuteromethyl)benzenesulfonamide] |
| < 0.01 µM | < 0.01 µM | CCN(CC1CC1)S(=O)(=O)c1ccc(-c2cnc(N)c(-c3ccc4c(c3)CCNC4=O)n2)cc1 [4-(5-amino-6-(1-oxo-1,2,3,4-tetrahydroisoquinolin-6-yl)pyrazin-2-yl)-N-(cyclopropylmethyl)-N-ethylbenzenesulfonamide] |
| < 0.01 µM | < 0.01 µM | CN(C1CCC1)S(=O)(=O)c1ccc(-c2cnc(N)c(-c3ccc4c(c3)CCNC4=O)n2)cc1 [4-(5-amino-6-(1-oxo-1,2,3,4-tetrahydroisoquinolin-6-yl)pyrazin-2-yl)-N-cyclobutyl-N-methylbenzenesulfonamide] |
| < 0.01 µM | < 0.01 µM | CN(C1CC1)S(=O)(=O)c1ccc(-c2cnc(N)c(-c3ccc4c(=O)[nH]ccc4c3)n2)cc1 [4-(5-amino-6-(1-oxo-1,2-dihydroisoquinolin-6-yl)pyrazin-2-yl)-N-cyclopropyl-N-methylbenzenesulfonamide] |
| < 0.01 µM | < 0.01 µM | CN(C1CC1)S(=O)(=O)c1ccc(-c2cnc(N)c(-c3ccc4c(c3)CCCNC4=O)n2)cc1 [4-(5-amino-6-(1-oxo-2,3,4,5-tetrahydro-1H-benzo[c]azepin-7-yl)pyrazin-2-yl)-N-cyclopropyl-N-methylbenzenesulfonamide] |
| < 0.01 µM | < 0.01 µM | Cc1cc(-c2cnc(N)c(-c3ccc4c(c3)C3(CC3)CNC4=O)n2)ccc1S(=O)(=O)NC1CC1 [4-(5-amino-6-(1′-oxo-2′,3′-dihydro-1′H-spiro[cyclopropane-1,4′-isoquinolin]-6′-yl)pyrazin-2-yl)-N-cyclopropyl-2-methylbenzenesulfonamide] |
| < 0.01 µM | < 0.01 µM | CN(C1CC1)S(=O)(=O)c1ccc(-c2cnc(N)c(-c3ccc4c(c3)C3(CC3)CNC4=O)n2)cc1 [4-(5-amino-6-(1′-oxo-2′,3′-dihydro-1′H-spiro[cyclopropane-1,4′-isoquinolin]-6′-yl)pyrazin-2-yl)-N-cyclopropyl-N-methylbenzenesulfonamide] |
| < 0.01 µM | < 0.01 µM | Nc1ncc(-c2ccc(S(=O)(=O)NC3CC3)cc2)nc1-c1ccc2c(c1)C1(CC1)CNC2=O [4-(5-amino-6-(1′-oxo-2′,3′-dihydro-1′H-spiro[cyclopropane-1,4′-isoquinolin]-6′-yl)pyrazin-2-yl)-N-cyclopropylbenzenesulfonamide] |
| < 0.15 µM | < 0.05 µM | CN1CCc2cc(-c3nc(-c4ccc(S(=O)(=O)N(C)C5CC5)cc4)cnc3N)ccc2C1=O [4-(5-amino-6-(2-methyl-1-oxo-1,2,3,4-tetrahydroisoquinolin-6-yl)pyrazin-2-yl)-N-cyclopropyl-N-methylbenzenesulfonamide] |
| < 0.05 µM | < 0.01 µM | CC1(C)NC(=O)c2ccc(-c3nc(-c4ccc(S(=O)(=O)NC5CC5)cc4)cnc3N)cc21 [4-(5-amino-6-(3,3-dimethyl-1-oxoisoindolin-5-yl)pyrazin-2-yl)-N-cyclopropylbenzenesulfonamide] |
